Data: patent US20150037351A1, “NOVEL THERAPEUTIC TARGET FOR THE PREVENTION OF TUMOUR METASTASIS” (MAX-PLANCK-GESELLSCHAFT ZUR FORDERUNG DER WISSENSCHAFTEN …, priority 2012, published 2015)

Key:
[1] = target: T1, P2Y2 receptors (Homo sapiens, UniProt P41231); conditions: cited from earlier work
[2] = target: T1, P2Y2 receptors; conditions: natural ligands of the human P2Y2 receptor; cited from earlier work
[3] = system: MS1 endothelial cells; assay: morphology of the endothelial monolayer (VE-cadherin/F-actin staining, discontinuous cellular junctions); format: cell-based, mouse
Procedure: (§1) The permeability assay was performed as described for the transwell assay with some modifications. Briefly, MS1 cells were cultured on transwell filters and the supernatant of platelets alone or platelets stimulated with tumour cells was mixed 1:1 with TB containing 2 mg/ml 70 kDa FITC-DX of which 50 μl were added to the upper compartment in the absence or presence of apyrase (20 U/ml). 250 μl TB were added to the lower compartment. After 90 min, the amount of passed FITC-DX to the lower compartment was measured (FlexStation3, Molecular Devices). For visualization of changes in the endothelial barrier, MS1 cells were stimulated for 1 h with supernatants from tumour cells alone or from tumour cells after stimulation with platelets in the absence or presence of apyrase (20 U/ml). Cells were further processed for staining and imaging
Cells or tissues were fixed with 4% para-formaldehyde. Tissues were further cryopreserved in 30% sucrose (Sigma), embedded in OCT (Fisher Scientific), and cryosectioned at 16 μm. Cells or sections were stained with rat anti-VE-Cadherin (BD Pharmingen) and Alexa Fluor (AF) 594- (Molecular Probes) or Cy5- (Dianova) conjugated secondary antibodies. DAPI (Sigma) was used to stain cell nuclei, and AF488-conjugated phalloidin (Molecular Probes) to stain F-actin. Images were acquired using a Leica SP5 confocal microscope and analyzed using ImageJ (NIH).

[4] = system: MS1 endothelial cell layer; assay: endothelial barrier permeability assay (FITC-dextran); format: cell-based, mouse
Procedure: as §1

[5] = system: B16 cells; assay: transwell assay: tumour cell transmigration through an endothelial cell layer; format: cell-based, mouse
Procedure: MS1 cells (8×10^3 at seeding in 50 μl) or HUVEC (6×10^3 at seeding in 50 μl) were cultured for 2 days on 96-transwell plates with polyester membranes of 8-μm pore size (Corning) with medium changes every day. For knockdown experiments, 4×10^5 MS1 cells were transfected using Amaxa Nucleofector Kit V with different sets of siRNA against the P2Y2 receptor (Qiagen) and 1.2×10^4 cells in 50 μl were seeded to the up-per compartment. Where indicated, MS1 cells were pre-incubated with 5-BDBD (1 μM) or MRS2500 (100 nM) for 30 min. Before the experiment, exemplary wells of each condition were visually checked by calcein-AM staining of the endothelial monolayer and only plates with 100% confluency were used. For transmigration, the medium from the upper compartment was removed and 50 μl of a 1:1 mixture of platelets (2×10^8/ml) with calcein-AM-labeled tumour cells (8×10^5/ml) in TB was added to the upper compartment alone or with flurbiprofen (100 nM), ketanserin (3 nM) or apyrase (20 […] (10 μM) and 2MeSADP (10 μM) were added in the absence of platelets. For supernatant experiments, human platelets (5×10^7/ml) or mouse platelets (2×10^8/ml) were incubated for 30 min at 37° C. alone or with tumour cells (1.6×10^6/ml) and centrifuged at 350×g for 10 min. The supernatant was mixed 1:1 with TB (for MS1 cells) or cell culture medium (for HUVECs) containing calcein-AM-labeled tumour cells (8×10^5/ml) and 50 μl were added to the upper compartment. In all experiments, 250 μl TB or culture medium were added to the lower compartment, and tumour cells were allowed to transmigrate over night. On the next day, the non-transmigrated tumour cells from the upper compartment were removed and only the transmigrated tumour cells on the lower side of the filter or the bottom of the transwell were imaged (Zeiss Axio Observer.Z1 and Olympus IX81) and quantified with ImageJ (NIH). Each experiment was performed at least 3 times with a minimum of 5 wells per experiment.

[6] = B16 cells on MS1 endothelial cells with platelets, flurbiprofen 100 nM, ketanserin 3 nM, apyrase 20 U/ml

T1 sequence (P41231 whole entry): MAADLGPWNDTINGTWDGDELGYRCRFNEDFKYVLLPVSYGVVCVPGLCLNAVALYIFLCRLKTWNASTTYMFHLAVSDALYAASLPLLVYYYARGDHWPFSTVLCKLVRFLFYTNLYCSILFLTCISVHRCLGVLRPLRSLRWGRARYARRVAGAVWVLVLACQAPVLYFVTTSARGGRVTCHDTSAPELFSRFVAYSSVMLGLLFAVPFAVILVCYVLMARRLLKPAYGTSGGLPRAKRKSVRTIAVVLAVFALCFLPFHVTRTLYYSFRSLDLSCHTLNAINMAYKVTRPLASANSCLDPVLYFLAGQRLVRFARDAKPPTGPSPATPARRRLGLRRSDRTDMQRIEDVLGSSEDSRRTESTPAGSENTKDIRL

Molecule: Nc1ncnc2c1ncn2[C@@H]1O[C@H](COP(=O)(O)OP(=O)(O)O)[C@@H](O)[C@H]1O [ADP]
- agonist efficacy at P2Y2 receptors in comparison to ATP [1]: less effective agonist
- EC50 [2]: considerably lower potency

Molecule: Nc1ncnc2c1ncn2[C@@H]1O[C@H](COP(=O)(O)OP(=O)(O)OP(=O)(O)O)[C@@H](O)[C@H]1O [ATP]
- tight interendothelial junctions ([3]; ATP 10 μM, 30 min, MS1 cells): loss
- endothelial permeability ([4]; ATP 10 μM, MS1 monolayer, FITC-dextran): increase

Molecule: O=c1ccn([C@@H]2O[C@H](COP(=O)(O)OP(=O)(O)OP(=O)(O)O)[C@@H](O)[C@H]2O)c(=O)[nH]1 [UTP]
- agonist efficacy at P2Y2 receptors in comparison to ATP [1]: full agonist

Molecule: CC(C(=O)O)c1ccc(-c2ccccc2)c(F)c1 (stereo not shown) [flurbiprofen]
- platelet-dependent facilitation of tumour cell transmigration ([5]; 0.1 µM): no effect

Molecule: O=C(c1ccc(F)cc1)C1CCN(CCn2c(=O)[nH]c3ccccc3c2=O)CC1 [ketanserin]
- platelet-dependent facilitation of tumour cell transmigration [5, 6]: no effect

Molecule: apyrase
- loss of tight interactions of endothelial cells in the monolayer induced by platelets with tumour cells ([3]; apyrase 20 U/ml, 1 h): blocked
- diffusion of FITC-labeled dextran over an endothelial cell layer enhanced by platelets with tumour cells ([4]; apyrase 20 U/ml, 90 min): blocked
- platelet-dependent facilitation of tumour cell transmigration [5, 6]: ablated
